According to US20250011686A1, “BIODEGRADABLE CHELATING AGENTS AND METHODS FOR FABRIC CARE” (The Procter & Gamble Company, priority 2023, published 2025):

Experiments:
Assay type in all cases: physicochemical
[1] = pKa of chelating agent (Table 1); details: successive pKa values; for catechin (A)/(B)
Description: Chelation is a type of bonding of ions and molecules to metal ions. It involves the formation or presence of two or more separate coordinate bonds between a ligand and a metal atom. Without being bound by theory, the stain removal effectiveness of a composition comprising one or more chelating agents may depend at least in part on the ability of the chelating agent(s) to bind to iron, which may be present in some stains, such as fruit or beverage stains. Several factors may impact a chelating agent's ability to bind to iron. These factors may include the pKa of the chelating agent compared to the wash pH, and the affinity of the chelating agent to bind with other metals, materials, or compositions in the wash.
Various embodiments may provide or employ a composition that comprises one or more chelating agents having a pKa that is less than the wash pH.

[2] = Calcium binding efficiency, logK(β110) (Table 1); details: one metal, one ligand, no protons
Description: (§1) The binding efficiencies may be expressed as a binding constant. A binding constant (also called formation constant or stability constant) is an equilibrium constant for the formation of a complex in solution. It is a measure of the strength of the interaction between the reagents that come together to form the complex. As an example, various stains may comprise catechins as shown in Formula 13. In Table 1, the reaction between metals and ligands is described in terms of log K(β110). In this context, K, is the equilibrium constant for the reaction between ligands and metals. The higher K, the more metal is bound. This is illustrated in the following example. β, represents the binding efficiency and receives some subscripts (βmlh) to indicate how many metals (m), ligands (l), and protons (h) respectively are involved.

[3] = Iron binding efficiency, logK(β110) (Table 1); details: one metal, one ligand, no protons
Description: as §1

Compound | pKa [1] | Ca^2+ logK(β110) (calcium binding efficiency) [2] | Ca^2+ logK(β110) (calcium binding efficiency) ([2]; listed as catechins) | Fe (III) logK(β110) (iron binding efficiency) [3] | Fe (III) logK(β110) (iron binding efficiency) ([3]; listed as catechins)
Oc1cc(O)c2c(c1)OC(c1ccc(O)c(O)c1)C(O)C2 (stereo not shown) [Catechin] | 8.7 | 3.5 | about 3.5 | 19.2 | about 19.2
CC(O)(P(=O)(O)O)P(=O)(O)O [HEDP, 1-Hydroxyethylidene-1,1-diphosphonic acid, reference compound] |  | 6.8 |  | 14.1 | 
CC(C)c1cccc(=O)c(O)c1 [Hinokitiol, 2-Hydroxy-6-(propan-2-yl)cyclohepta-2,4,6-trien-1-one] | ~7 | 2.2 |  | 12.9 | 
O=c1cccccc1O [Tropolone, 2-Hydroxycyclohepta-2,4,6-trien-1-one] | 6.7 | 3.1 |  | 10.5 | 
